Experimental data: patent US20040029965A1, “Formulations for reducing or eliminating toxicity of enviromental hormones containing ursodeoxycholic acid” (priority 2000, published 2004)

Columns and labels:
C57B1/6J mice [1] = assay: Water uptake of mice after a single subcutaneous injection of TCDD; format: in vivo; design: unit not given here
Method: (§1) Male C57B1/6J mice of 5 weeks old having the average weight of 18-22 g which had been bred in CRJ (Charles River in Japan) were purchased and used in this example as experimental animals. Those mice were acclimated under the constant breeding condition, i.e. the temperature of 24±1° C., the humidity of 60±10% and the light and darkness cycle of 12 hours, for one week and thereafter, utilized in the experiment.
The Experimental animals were supplied with Purina powdered feed (purchased from Hae Eun Trade) and supplied with water ad libitum. All the animals were weighed twice a week during experimentation.
(§2) 2,3,7,8-tetrachlorodibenzo-p-dioxin (TCDD) dissolved in toluene (purity of 95% or more as a result of gas chromatography analysis), manufactured by Chem. Services Inc. in USA, was volatilized with nitrogen to obtain powder. The obtained powder was dissolved in a mixed solvent containing acetone and corn oil with a volume ratio of 1:6. The resulting solution each containing 110, 27.5 and 6.9 μg/kg of TCDD was subcutaneously injected to mice at a volume of 5 ml per body weight. […] The mice were supplied with the feed from 10 days before (pre-administration) to 60 days after administration of TCDD (post-administration).
(§3) The results are expressed as Mean±Standard Deviation values. For statistical analysis of the body weight, feed and water uptake, biochemical findings, hematological findings and the weight of organ in an acute toxicity test, verification was performed by one way analysis of variance (ANOVA) in case of equal distribution. In case significance was recognized in ANOVA, the Student's t-test was performed in the levels of p<0.05 and p<0.01.

C57B1/6J mice [2] = assay: Organ weights (liver, kidneys, testes, epididymides) of mice after a single subcutaneous injection of TCDD; format: in vivo
Method: as §1, §2
Upon completion of the experiment for 60 days, the experimental animals were fasted for 24 hours and anesthetized with ether. Then, they were abdominally incised and blood was gathered from abdominal vena cava. They were sacrificed by the release of blood. Liver, kidneys, testes and epididymides were extracted and all the extracted organs were weighed. Only the testes were separately kept and observed under optical and electron microscopes. For biochemical finding test, serum was separated from blood with a centrifuge and the separated serum was analyzed with an automated blood biochemical analyzer, Dimension (Dupont, USA). Blood was put to another blood gathering bottle and then, analyzed with an automated blood cell analyzer, Celldyn (Abbott, USA).
as §3
The organs, i.e. liver, kidneys, testes and epididymides, were weighed and the results are shown in the following.

Clc1cc2c(cc1Cl)Oc1cc(Cl)c(Cl)cc1O2 [TCDD, 2,3,7,8-tetrachlorodibenzo-p-dioxin]
water uptake (C57B1/6J mice [1]; TCDD 6.9 μg/kg alone, 10 days): 4.23 ± 0.52 | water uptake (C57B1/6J mice [1]; TCDD 6.9 μg/kg alone, 20 days): 4.08 ± 0.72 | water uptake (C57B1/6J mice [1]; TCDD 6.9 μg/kg alone, 30 days): 4.70 ± 0.42 | water uptake (C57B1/6J mice [1]; TCDD 6.9 μg/kg alone, 40 days): 4.30 ± 0.42 | water uptake (C57B1/6J mice [1]; TCDD 6.9 μg/kg alone, 50 days): 4.72 ± 0.39 | water uptake (C57B1/6J mice [1]; TCDD 6.9 μg/kg alone, 60 days): 4.88 ± 0.17 | water uptake (C57B1/6J mice [1]; TCDD 27.5 μg/kg alone, 10 days): 3.38 ± 0.75 | water uptake (C57B1/6J mice [1]; TCDD 27.5 μg/kg alone, 20 days): 3.58 ± 0.14 | water uptake (C57B1/6J mice [1]; TCDD 27.5 μg/kg alone, 30 days): 3.10 ± 0.14 | water uptake (C57B1/6J mice [1]; TCDD 27.5 μg/kg alone, 40 days): 3.10 ± 0.14 | water uptake (C57B1/6J mice [1]; TCDD 27.5 μg/kg alone, 50 days): 2.89 ± 0.63 | water uptake (C57B1/6J mice [1]; TCDD 27.5 μg/kg alone, 60 days): 3.19 ± 0.21 | water uptake (C57B1/6J mice [1]; TCDD 110.0 μg/kg alone, 10 days): 3.27 ± 0.78 | water uptake (C57B1/6J mice [1]; TCDD 110.0 μg/kg alone, 20 days): 4.00 ± 0.66 | water uptake (C57B1/6J mice [1]; TCDD 110.0 μg/kg alone, 30 days): 4.70 ± 0.42 | Left epididymis Relative weight (C57B1/6J mice [2]; TCDD 6.9 μg/kg alone): 0.101 ± 0.012% | Left epididymis Weight (C57B1/6J mice [2]; TCDD 6.9 μg/kg alone): 0.023 ± 0.005 g | Left kidney Relative weight (C57B1/6J mice [2]; TCDD 6.9 μg/kg alone): 0.508 ± 0.050% | Left kidney Weight (C57B1/6J mice [2]; TCDD 6.9 μg/kg alone): 0.115 ± 0.018 g | Left testis Relative weight (C57B1/6J mice [2]; TCDD 6.9 μg/kg alone): 0.296 ± 0.030% | Left testis Weight (C57B1/6J mice [2]; TCDD 6.9 μg/kg alone): 0.067 ± 0.011 g | Liver Relative weight (C57B1/6J mice [2]; TCDD 6.9 μg/kg alone): 4.092% | Liver Weight (C57B1/6J mice [2]; TCDD 6.9 μg/kg alone): 0.935 ± 0.173 g | Right epididymis Relative weight (C57B1/6J mice [2]; TCDD 6.9 μg/kg alone): 0.110 ± 0.027% | Right epididymis Weight (C57B1/6J mice [2]; TCDD 6.9 μg/kg alone): 0.025 ± 0.007 g | Right kidney Relative weight (C57B1/6J mice [2]; TCDD 6.9 μg/kg alone): 0.513 ± 0.066% | Right kidney Weight (C57B1/6J mice [2]; TCDD 6.9 μg/kg alone): 0.117 ± 0.022 g | Right testis Relative weight (C57B1/6J mice [2]; TCDD 6.9 μg/kg alone): 0.285 ± 0.035% | Right testis Weight (C57B1/6J mice [2]; TCDD 6.9 μg/kg alone): 0.65 ± 0.010 g | Left epididymis Relative weight (C57B1/6J mice [2]; TCDD 27.5 μg/kg alone): 0.124 ± 0.024 % | Left epididymis Weight (C57B1/6J mice [2]; TCDD 27.5 μg/kg alone): 0.021 ± 0.006 g | Left kidney Relative weight (C57B1/6J mice [2]; TCDD 27.5 μg/kg alone): 0.625 ± 0.037 % | Left kidney Weight (C57B1/6J mice [2]; TCDD 27.5 μg/kg alone): 0.101 ± 0.012 g | Left testis Relative weight (C57B1/6J mice [2]; TCDD 27.5 μg/kg alone): 0.356 ± 0.051 % | Left testis Weight (C57B1/6J mice [2]; TCDD 27.5 μg/kg alone): 0.058 ± 0.014 g | Liver Relative weight (C57B1/6J mice [2]; TCDD 27.5 μg/kg alone): 4.506% | Liver Weight (C57B1/6J mice [2]; TCDD 27.5 μg/kg alone): 0.734 ± 0.151 g | Right epididymis Relative weight (C57B1/6J mice [2]; TCDD 27.5 μg/kg alone): 0.129 ± 0.027 % | Right epididymis Weight (C57B1/6J mice [2]; TCDD 27.5 μg/kg alone): 0.021 ± 0.006 g | Right kidney Relative weight (C57B1/6J mice [2]; TCDD 27.5 μg/kg alone): 0.571 ± 0.030 % | Right kidney Weight (C57B1/6J mice [2]; TCDD 27.5 μg/kg alone): 0.092 ± 0.012 g | Right testis Relative weight (C57B1/6J mice [2]; TCDD 27.5 μg/kg alone): 0.352 ± 0.059 % | Right testis Weight (C57B1/6J mice [2]; TCDD 27.5 μg/kg alone): 0.058 ± 0.015 g
